Test results from patent publication US7045343B2, “Sterilization indicator test packs” (3M Innovative Properties Company, priority 1998, dated 2006).

Test system: enzyme associated with Bacillus stearothermophilus spores
Experiment: Rapid enzyme fluorescence readout of dual rapid readout indicators after prevacuum steam sterilization
Assay type: biochemical
Conditions: 4-pulse prevacuum steam 121° C.
Summary of the method: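 Bacillus stearothermophilus ATCC 7953 spores were coated with a sterilant-resistant chemical solution and pipetted onto paper strips at about 1×10^6 spores per strip. Each strip sat in a dual rapid readout indicator beside a crushable inner container of nutrient medium holding 4-methylumbelliferyl-alpha-D-glucoside at pH 7.6. Indicators went through a 4-pulse prevacuum steam cycle at 121° C, were activated, incubated at 60° C, and read for fluorescence on a 3M ATTEST Model 190 Rapid Autoreader.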

[1] = Example 1, 10 mg/ml coating, 7–13 min
[2] = Example 1, 20 mg/ml coating, 7–13 min
[3] = Example 1, 40 mg/ml coating, 7–13 min
[4] = Example 1, 80 mg/ml coating, 7–13 min
[5] = Example 1, 100 mg/ml coating, 7–13 min
[6] = Example 3, 100 mg/ml coating, 7–15 min
[7] = Example 4, 50 mg/ml coating, 7–18 min
[8] = Example 4, 100 mg/ml coating, 7–18 min

## Decaglyceryl Monostearate
  accuracy of sterilization indicators compared to indicators made with untreated spores: improved
Listed as decaglycerol monostearate
  accuracy of sterilization indicators compared to indicators made with untreated spores: improved accuracy
[1]
  FLUORESCENCE - PERCENT POSITIVE 1 HR: 0%
  FLUORESCENCE - PERCENT POSITIVE 2 HR: 41.0%
  FLUORESCENCE - PERCENT POSITIVE 3 HR: 74.4%
  FLUORESCENCE - PERCENT POSITIVE 4 HR: 82.1%
  FLUORESCENCE - PERCENT POSITIVE 5 HR: 87.2%
  FLUORESCENCE - PERCENT POSITIVE 6 HR: 89.7%
[2]
  FLUORESCENCE - PERCENT POSITIVE 1 HR: 0%
  FLUORESCENCE - PERCENT POSITIVE 2 HR: 17.6%
  FLUORESCENCE - PERCENT POSITIVE 3 HR: 73.5%
  FLUORESCENCE - PERCENT POSITIVE 4 HR: 91.2%
  FLUORESCENCE - PERCENT POSITIVE 5 HR: 100%
  FLUORESCENCE - PERCENT POSITIVE 6 HR: 100%
[3]
  FLUORESCENCE - PERCENT POSITIVE 1 HR: 0%
  FLUORESCENCE - PERCENT POSITIVE 2 HR: 69.5%
  FLUORESCENCE - PERCENT POSITIVE 3 HR: 91.5%
  FLUORESCENCE - PERCENT POSITIVE 4 HR: 100%
  FLUORESCENCE - PERCENT POSITIVE 5 HR: 100%
  FLUORESCENCE - PERCENT POSITIVE 6 HR: 100%
[4]
  FLUORESCENCE - PERCENT POSITIVE 1 HR: 0%
  FLUORESCENCE - PERCENT POSITIVE 2 HR: 85.5%
  FLUORESCENCE - PERCENT POSITIVE 3 HR: 96.4%
  FLUORESCENCE - PERCENT POSITIVE 4 HR: 100%
  FLUORESCENCE - PERCENT POSITIVE 5 HR: 100%
  FLUORESCENCE - PERCENT POSITIVE 6 HR: 100%
[5]
  FLUORESCENCE - PERCENT POSITIVE 1 HR: 8.8%
  FLUORESCENCE - PERCENT POSITIVE 2 HR: 85.3%
  FLUORESCENCE - PERCENT POSITIVE 3 HR: 100%
  FLUORESCENCE - PERCENT POSITIVE 4 HR: 100%
  FLUORESCENCE - PERCENT POSITIVE 5 HR: 100%
  FLUORESCENCE - PERCENT POSITIVE 6 HR: 100%
[6]
  FLUORESCENCE - PERCENT POSITIVE 1 HR: 0%
  FLUORESCENCE - PERCENT POSITIVE 2 HR: 100.0%
  FLUORESCENCE - PERCENT POSITIVE 3 HR: 100.0%
  FLUORESCENCE - PERCENT POSITIVE 4 HR: 100.0%
[7]
  FLUORESCENCE - PERCENT POSITIVE 1 HR: 13.8%
  FLUORESCENCE - PERCENT POSITIVE 2 HR: 86.2%
  FLUORESCENCE - PERCENT POSITIVE 3 HR: 100.0%
  FLUORESCENCE - PERCENT POSITIVE 4 HR: 100.0%

## Decaglyceryl Decaoleate
[7]
  FLUORESCENCE - PERCENT POSITIVE 1 HR: 0%
  FLUORESCENCE - PERCENT POSITIVE 2 HR: 19.4%
  FLUORESCENCE - PERCENT POSITIVE 3 HR: 29.0%
  FLUORESCENCE - PERCENT POSITIVE 4 HR: 41.9%
[8]
  FLUORESCENCE - PERCENT POSITIVE 1 HR: 16.7%
  FLUORESCENCE - PERCENT POSITIVE 2 HR: 20%
  FLUORESCENCE - PERCENT POSITIVE 3 HR: 30%
  FLUORESCENCE - PERCENT POSITIVE 4 HR: 50%
